# Measurements taken from patent US20260217687A1 (NeoPhore Limited, priority 2023, published 2026).
# Biological target: T1, recombinant N-terminal MLH1 (residues 15-340) (Homo sapiens, UniProt P40692)
# T1 construct: recombinant N-terminal MLH1 (residues 15-340)
# T1 sequence (P40692 15-340): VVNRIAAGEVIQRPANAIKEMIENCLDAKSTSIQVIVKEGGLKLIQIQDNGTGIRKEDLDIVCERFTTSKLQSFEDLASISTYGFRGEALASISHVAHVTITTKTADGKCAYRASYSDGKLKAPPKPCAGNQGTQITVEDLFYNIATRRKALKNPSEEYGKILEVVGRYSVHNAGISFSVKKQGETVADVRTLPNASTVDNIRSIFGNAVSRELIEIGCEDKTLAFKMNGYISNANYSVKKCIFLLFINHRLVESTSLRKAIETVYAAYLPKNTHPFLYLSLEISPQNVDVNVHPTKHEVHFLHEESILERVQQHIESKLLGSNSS
# Assay: Fluorescence Polarisation Assay for MLH1
# Format: binding
# Details: 100 nM N-terminal MLH1, 5 nM probe compound
# Procedure, shortened: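 Fluorescence polarisation displacement: 100 nM MLH1 (15-340) preincubated 30 min at room temperature with compound, then 5 nM rhodamine-labelled probe added and read immediately. Buffer 25 mM HEPES pH 7.5, 250 mM NaCl, 10 mM MgCl2, 0.01% Triton X-100, 5 mM DTT; normalised to no-inhibitor and no-enzyme controls.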
row,Structure (SMILES),IC50
1,"N#Cc1cc(O)c(C(=O)N2CCc3ccc(NC4CCOC4)cc32)c(OCc2ccccc2)c1 (centres unmarked) [Example 27.3, 3-(Benzyloxy)-5-hydroxy-4-(6-((tetrahydrofuran-3-yl)amino)indoline-1-carbonyl)benzonitrile]",1000 to 10000 nM
2,"Cn1cnc(-c2cc3c(c(N[C@H]4CCOC4)c2)CN(C(=O)c2c(O)cc(C(F)F)cc2OCc2ccccc2)CC3)c1 [Example 4.27, (S)-(2-(Benzyloxy)-4-(difluoromethyl)-6-hydroxyphenyl) (6-(1-methyl-1H-imidazol-4-yl)-8-((tetrahydrofuran-3-yl)amino)-3,4-dihydroisoquinolin-2(1H)-yl)methanone]",100 to 1000 nM
3,"CN(C)CCOc1cc2c(c(N[C@@H]3CCOC3)c1)CN(C(=O)c1c(O)cc(C(F)F)cc1OCc1ccccc1)C2 [Example 4.75, (R)-(2-(Benzyloxy)-4-(difluoromethyl)-6-hydroxyphenyl) (6-(2-(dimethylamino)ethoxy)-4-((tetrahydrofuran-3-yl)amino)isoindolin-2-yl)methanone]",< 100 nM
4,"O=C(c1c(O)cc(C(F)F)cc1OCc1ccccc1)N1CCc2cc(NC3CCOC3)ccc21 (centres unmarked) [Example 27.5, (2-(Benzyloxy)-4-(difluoromethyl)-6-hydroxyphenyl)(5-((tetrahydrofuran-3-yl)amino)indolin-1-yl)methanone]",1000 to 10000 nM
5,"N#Cc1cc(O)c(C(=O)N2Cc3cccc(N[C@@H]4CCOC4)c3C2)c(OCc2ccccc2)c1 [Example 12.3, (R)-3-(Benzyloxy)-5-hydroxy-4-(4-((tetrahydrofuran-3-yl)amino)isoindoline-2-carbonyl)benzonitrile]",1000 to 10000 nM
6,"CNc1cccc2c1CN(C(=O)c1c(O)cc(C(F)F)cc1OCc1ccccc1)C2 [Example 4.34, (2-(Benzyloxy)-4-(difluoromethyl)-6-hydroxyphenyl) (4-(methylamino)isoindolin-2-yl) methanone]",1000 to 10000 nM
7,"CN(C)CCOc1cc2c(c(N[C@@H]3CCOC3)c1)CN(C(=O)c1c(O)cc(Cl)cc1OCc1ccccc1)CC2 [Example 21, (R)-(2-(Benzyloxy)-4-chloro-6-hydroxyphenyl)(6-(2-(dimethylamino)ethoxy)-8-((tetrahydrofuran-3-yl)amino)-3,4-dihydroisoquinolin-2(1H)-yl)methanone]",< 100 nM
8,"CN(C)Cc1cc2c(c(N[C@H]3CCOC3)c1)CN(C(=O)c1c(O)cc(C(F)F)cc1OCc1ccccc1)C2 [Example 4.2, (S)-(2-(Benzyloxy)-4-(difluoromethyl)-6-hydroxyphenyl)(6-((dimethylamino)methyl)-4-((tetrahydrofuran-3-yl)amino)isoindolin-2-yl)methanone]",100 to 1000 nM
9,"COc1cc(O)c(C(=O)N2Cc3cccc(N[C@H]4CCOC4)c3C2)c(OCc2ccccc2)c1 [Example 1, (S)-(2-(Benzyloxy)-6-hydroxy-4-methoxyphenyl)(4-((tetrahydrofuran-3-yl)amino)isoindolin-2-yl)methanone]",100 to 1000 nM
10,"CN1CC(Oc2ccc3c(c2)CCN(C(=O)c2c(O)cc(C(F)F)cc2OCc2ccccc2)C3)C1 [Example 4.66, (2-(Benzyloxy)-4-(difluoromethyl)-6-hydroxyphenyl)(6-((1-methylazetidin-3-yl)oxy)-3,4-dihydroisoquinolin-2(1H)-yl)methanone]",100 to 1000 nM
11,"CN1CCN(Cc2ccc3c(c2)CN(C(=O)c2c(O)cc(C#N)cc2OCc2ccccc2)C3)CC1 [Example 10.34, 3-(Benzyloxy)-5-hydroxy-4-(5-((4-methylpiperazin-1-yl)methyl)isoindoline-2-carbonyl)benzonitrile]",100 to 1000 nM
12,"CN1CCC(Oc2cc3c(c(N[C@H]4CCOC4)c2)CN(C(=O)c2c(O)cc(C(F)F)cc2OCc2ccccc2)C3)CC1 [Example 4.62, (S)-(2-(Benzyloxy)-4-(difluoromethyl)-6-hydroxyphenyl)(6-((1-methylpiperidin-4-yl)oxy)-4-((tetrahydrofuran-3-yl)amino)isoindolin-2-yl)methanone]",< 100 nM
13,"CN1CCN(Cc2ccc3c(c2)CN(C(=O)c2c(O)cc(C(F)F)cc2OCc2ccccc2)CC3)CC1 [Example 4.46, (2-(Benzyloxy)-4-(difluoromethyl)-6-hydroxyphenyl)(7-((4-methylpiperazin-1-yl)methyl)-3,4-dihydroisoquinolin-2(1H)-yl)methanone]",100 to 1000 nM
14,"CN(C)Cc1ccc2c(c1)CCN(C(=O)c1c(O)cc(C(F)F)cc1OCc1ccccc1)C2 [Example 4.43, (2-(Benzyloxy)-4-(difluoromethyl)-6-hydroxyphenyl)(6-((dimethylamino)methyl)-3,4-dihydroisoquinolin-2(1H)-yl)methanone]",100 to 1000 nM
15,"CN(C)CCOc1cc2c(c(N[C@@H]3CCOC3)c1)CN(C(=O)c1c(O)cc(Cl)cc1OCc1ccccc1)C2 [Example 9, (R)-(2-(Benzyloxy)-4-chloro-6-hydroxyphenyl)(6-(2-(dimethylamino)ethoxy)-4-((tetrahydrofuran-3-yl)amino)isoindolin-2-yl)methanone]",100 to 1000 nM
16,"COc1cccc(COc2cc(C(F)F)cc(O)c2C(=O)N2Cc3cccc(N[C@H]4CCOC4)c3C2)c1 [Example 4.1, (S)-(4-(Difluoromethyl)-2-hydroxy-6-((3-methoxybenzyl)oxy)phenyl)(4-((tetrahydrofuran-3-yl)amino)isoindolin-2-yl)methanone]",100 to 1000 nM
17,"N#Cc1cc(O)c(C(=O)N2Cc3cccc(NC4COC(=O)C4)c3C2)c(OCc2ccccc2)c1 (centres unmarked) [Example 10.19, 3-(Benzyloxy)-5-hydroxy-4-(4-((5-oxotetrahydrofuran-3-yl)amino)isoindoline-2-carbonyl)benzonitrile]",100 to 1000 nM
18,"CNc1cc(OCCN(C)C)cc2c1CN(C(=O)c1c(O)cc(C(F)F)cc1OCc1ccccc1)CC2 [Example 4.73, (2-(Benzyloxy)-4-(difluoromethyl)-6-hydroxyphenyl)(6-(2-(dimethylamino)ethoxy)-8-(methylamino)-3,4-dihydroisoquinolin-2(1H)-yl)methanone]",100 to 1000 nM
19,"COCCNc1cccc2c1CN(C(=O)c1c(O)cc(C(F)F)cc1OCc1ccccc1)CC2 [Example 4.37, (2-(Benzyloxy)-4-(difluoromethyl)-6-hydroxyphenyl)(8-((2-methoxyethyl)amino)-3,4-dihydroisoquinolin-2(1H)-yl)methanone]",1000 to 10000 nM
20,"CN1C[C@H](Nc2cccc3c2CN(C(=O)c2c(O)cc(C#N)cc2OCc2ccccc2)C3)CC1=O (single isomer, unassigned) [Example 10.7, (R)-3-(Benzyloxy)-5-hydroxy-4-(4-((1-methyl-5-oxopyrrolidin-3-yl)amino)isoindoline-2-carbonyl)benzonitrile or (S)-3-(benzyloxy)-5-hydroxy-4-(4-((1-methyl-5-oxopyrrolidin-3-yl)amino)isoindoline-2-carbonyl)benzonitrile]",100 to 1000 nM
21,"N#Cc1cc(O)c(C(=O)N2Cc3cccc(N[C@H]4CCOC4)c3C2)c(OCc2ccccc2)c1 [Example 12, (S)-3-(Benzyloxy)-5-hydroxy-4-(4-((tetrahydrofuran-3-yl)amino)isoindoline-2-carbonyl)benzonitrile]",100 to 1000 nM
22,"O=C(c1c(O)cc(C(F)F)cc1OCc1ccccc1)N1CCc2cc(Cn3ccnc3)ccc2C1 [Example 4.49, (6-((1H-Imidazol-1-yl)methyl)-3,4-dihydroisoquinolin-2(1H)-yl)(2-(benzyloxy)-4-(difluoromethyl)-6-hydroxyphenyl)methanone]",100 to 1000 nM
23,"COc1ccc(COc2cc(C(F)F)cc(O)c2C(=O)N2Cc3cccc(N[C@H]4CCOC4)c3C2)cc1 [Example 4.8, (S)-(4-(Difluoromethyl)-2-hydroxy-6-((4-methoxybenzyl)oxy)phenyl)(4-((tetrahydrofuran-3-yl)amino)isoindolin-2-yl)methanone]",100 to 1000 nM
24,"COc1cccc2c1CN(C(=O)c1c(O)cc(C#N)cc1OCc1ccccc1)C2 [Example 10.11, 3-(Benzyloxy)-5-hydroxy-4-(4-methoxyisoindoline-2-carbonyl)benzonitrile]",1000 to 10000 nM
25,"N#Cc1cc(O)c(C(=O)N2Cc3cccc(Nc4cncnc4)c3C2)c(OCc2ccccc2)c1 [Example 10.4, 3-(Benzyloxy)-5-hydroxy-4-(4-(pyrimidin-5-ylamino)isoindoline-2-carbonyl)benzonitrile]",1000 to 10000 nM
26,"O=C(c1c(O)cc(C(F)F)cc1OCc1ccccn1)N1CCc2cccc(N[C@H]3CCOC3)c2C1 [Example 4.10, (S)-(4-(Difluoromethyl)-2-hydroxy-6-(pyridin-2-ylmethoxy)phenyl)(8-((tetrahydrofuran-3-yl)amino)-3,4-dihydroisoquinolin-2(1H)-yl)methanone]",100 to 1000 nM
27,"CN(C)CCOc1ccc2c(c1)CCN(C(=O)c1c(O)cc(Cl)cc1OCc1ccccc1)C2 [Example 10.22, (2-(Benzyloxy)-4-chloro-6-hydroxyphenyl)(6-(2-(dimethylamino)ethoxy)-3,4-dihydroisoquinolin-2(1H)-yl)methanone]",1000 to 10000 nM
28,CN1CC(Nc2cccc3c2CN(C(=O)c2c(O)cc(C(F)F)cc2OCc2ccccc2)C3)C1 [Example 4.33],100 to 1000 nM
29,"O=C(c1c(O)cc(C(F)F)cc1OCc1ccccn1)N1Cc2cccc(N[C@H]3CCOC3)c2C1 [Example 4.9, (S)-(4-(Difluoromethyl)-2-hydroxy-6-(pyridin-2-ylmethoxy)phenyl) (4-((tetrahydrofuran-3-yl)amino)isoindolin-2-yl) methanone]",100 to 1000 nM
